Test results: ChEMBL document CHEMBL1201862, “PubChem BioAssay data set” (2004)
Counter-ions that a name gives are not always drawn. The source made the active and inactive calls.

Legend:
[1] = intracellular Trypanosoma cruzi inhibitors in host cells – cell-based, plate reader, cherry-pick samples, set 3, dose response (AID 651818); type: functional;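 also: compounds incubated with infected cells for about four days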
[2] = T. cruzi growth inhibition in host cells, dose response, cell-based, plate reader, dry powder, set 2 (AID 652275); type: functional
[3] = growth inhibition of intracellular T. cruzi, dose response, cell-based, plate reader, dry powder samples (AID 651845); type: functional
[4] = T. cruzi intracellular amastigote growth inhibition, dose response, imaging, CA-I/72 strain, bovine embryo skeletal muscle, dry powder (AID 651885); type: functional, cell-based
[5] = inhibitors of HIV Env-driven cell fusion, dose response, cherry-pick (AID 652057); type: functional, cell-based
Paired box protein Pax-8 = Paired box protein Pax-8 (Homo sapiens, UniProt Q06710); assay: inhibitors of PAX8-driven TPO luciferase reporter, dose response, RMG-I cells, cherry-pick (AID 687027); type: functional, cell-based;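 also: luciferase reporter driven by Pax8 target thyroperoxidase promoter measured by SteadyGlo luminescence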
[6] = inhibitors of clade B AD8 Env fusion, dose response, cell-based, cherry-pick (AID 652062); type: functional;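 also: luciferase signal from cell-cell fusion driven by HIV-1 clade B AD8 Env; potency is for inhibitors of fusion seen as a drop in luminescence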
[7] = NIH:OVCAR-3 ovarian cancer cell cytotoxicity, dose response, PAX8 inhibitor project, plate reader, dry powder samples (AID 743044); type: functional, cell-based
[8] = HEK293T cytotoxicity, dose response, cytotoxicity control for miR-122 modulator project, cell-based, activator set, cherry-pick (AID 720690); type: functional;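 also: HEK293T human cells scored for general mammalian cytotoxicity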
[9] = cytotoxicity in OVCAR8 ovarian cancer cells, dose response, PAX8 project, cell-based, plate reader, dry powder samples (AID 743197); type: functional; conditions: OVCAR-8
SUMO-activating enzyme [10] = target: T1, SUMO-activating enzyme (Homo sapiens, UniProt Q9UBT2); assay: SUMOylation inhibitor hit validation, confirmation, SUMOylation inhibitor project, biochemical, AlphaScreen (AID 2018); type: functional
SUMO-activating enzyme [11] = target: T1, SUMO-activating enzyme; assay: inhibitors of in vitro SUMOylation cascade, primary screen, biochemical, HTRF, uHTS (AID 2006); type: protein-complex assay
[12] = target: T2, Apoptotic protease-activating factor 1 (Homo sapiens, UniProt O14727); type: functional
T2 sequence (O14727 whole entry): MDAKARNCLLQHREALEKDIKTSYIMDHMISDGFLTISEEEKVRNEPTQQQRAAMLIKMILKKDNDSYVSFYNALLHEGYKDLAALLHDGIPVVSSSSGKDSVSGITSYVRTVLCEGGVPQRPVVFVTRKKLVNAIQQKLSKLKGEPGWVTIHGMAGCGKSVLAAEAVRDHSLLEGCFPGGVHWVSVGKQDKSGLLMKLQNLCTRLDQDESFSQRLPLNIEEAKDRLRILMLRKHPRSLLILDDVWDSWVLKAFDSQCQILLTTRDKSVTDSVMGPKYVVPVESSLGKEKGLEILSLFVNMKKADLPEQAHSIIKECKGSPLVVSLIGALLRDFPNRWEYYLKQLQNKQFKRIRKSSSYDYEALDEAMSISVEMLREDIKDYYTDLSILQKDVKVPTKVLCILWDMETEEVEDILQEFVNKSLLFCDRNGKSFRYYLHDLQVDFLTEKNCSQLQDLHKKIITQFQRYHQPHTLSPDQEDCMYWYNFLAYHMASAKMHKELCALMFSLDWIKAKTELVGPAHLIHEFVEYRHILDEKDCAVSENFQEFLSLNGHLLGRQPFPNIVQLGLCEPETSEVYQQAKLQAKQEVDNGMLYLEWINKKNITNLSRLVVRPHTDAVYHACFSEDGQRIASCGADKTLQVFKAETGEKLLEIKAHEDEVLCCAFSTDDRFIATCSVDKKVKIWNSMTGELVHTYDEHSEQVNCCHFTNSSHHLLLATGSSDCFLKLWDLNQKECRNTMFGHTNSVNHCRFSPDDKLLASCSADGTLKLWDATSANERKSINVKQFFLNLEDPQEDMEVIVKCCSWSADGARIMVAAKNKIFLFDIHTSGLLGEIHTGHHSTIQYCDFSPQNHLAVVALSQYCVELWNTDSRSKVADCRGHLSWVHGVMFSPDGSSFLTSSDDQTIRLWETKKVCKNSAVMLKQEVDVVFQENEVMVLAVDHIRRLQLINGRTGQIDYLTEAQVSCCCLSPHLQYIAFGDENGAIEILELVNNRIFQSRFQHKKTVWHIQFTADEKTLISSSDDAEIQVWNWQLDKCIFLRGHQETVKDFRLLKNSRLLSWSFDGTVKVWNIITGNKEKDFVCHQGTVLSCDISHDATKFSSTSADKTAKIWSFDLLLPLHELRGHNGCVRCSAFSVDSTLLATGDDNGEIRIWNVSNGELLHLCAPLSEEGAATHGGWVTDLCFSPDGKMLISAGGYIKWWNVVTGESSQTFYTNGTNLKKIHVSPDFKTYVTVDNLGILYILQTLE

[13] = target: T3, Sentrin-specific protease 8 (Homo sapiens, UniProt Q96LD8); type: functional
T3 sequence (Q96LD8 whole entry): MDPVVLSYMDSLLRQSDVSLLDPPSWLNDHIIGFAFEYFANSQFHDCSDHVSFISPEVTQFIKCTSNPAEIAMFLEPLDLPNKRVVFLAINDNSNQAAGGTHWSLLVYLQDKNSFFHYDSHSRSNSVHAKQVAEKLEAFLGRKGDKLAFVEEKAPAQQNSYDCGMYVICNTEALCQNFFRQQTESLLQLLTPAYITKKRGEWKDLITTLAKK

[14] = target: T3, Sentrin-specific protease 8; type: functional; remark: listed apart in the source
Caspase-6 = target: T4, Caspase-6 (Homo sapiens, UniProt P55212); assay: human caspase-6 inhibitors, dose response, biochemical, VEID-R110 fluorescence, cherry-pick (AID 720632)
T4 sequence (P55212 whole entry): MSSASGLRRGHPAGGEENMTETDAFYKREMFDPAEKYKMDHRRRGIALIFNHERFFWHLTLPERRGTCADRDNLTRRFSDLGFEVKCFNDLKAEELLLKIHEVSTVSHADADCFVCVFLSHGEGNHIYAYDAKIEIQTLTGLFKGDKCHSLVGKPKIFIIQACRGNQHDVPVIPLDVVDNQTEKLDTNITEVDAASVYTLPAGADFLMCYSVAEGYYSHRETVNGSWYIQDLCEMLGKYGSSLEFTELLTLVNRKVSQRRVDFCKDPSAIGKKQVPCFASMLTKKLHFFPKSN

[15] = target: T5, Histone-lysine N-methyltransferase NSD2 (Homo sapiens, UniProt O96028); type: biochemical
T5 sequence (O96028 whole entry): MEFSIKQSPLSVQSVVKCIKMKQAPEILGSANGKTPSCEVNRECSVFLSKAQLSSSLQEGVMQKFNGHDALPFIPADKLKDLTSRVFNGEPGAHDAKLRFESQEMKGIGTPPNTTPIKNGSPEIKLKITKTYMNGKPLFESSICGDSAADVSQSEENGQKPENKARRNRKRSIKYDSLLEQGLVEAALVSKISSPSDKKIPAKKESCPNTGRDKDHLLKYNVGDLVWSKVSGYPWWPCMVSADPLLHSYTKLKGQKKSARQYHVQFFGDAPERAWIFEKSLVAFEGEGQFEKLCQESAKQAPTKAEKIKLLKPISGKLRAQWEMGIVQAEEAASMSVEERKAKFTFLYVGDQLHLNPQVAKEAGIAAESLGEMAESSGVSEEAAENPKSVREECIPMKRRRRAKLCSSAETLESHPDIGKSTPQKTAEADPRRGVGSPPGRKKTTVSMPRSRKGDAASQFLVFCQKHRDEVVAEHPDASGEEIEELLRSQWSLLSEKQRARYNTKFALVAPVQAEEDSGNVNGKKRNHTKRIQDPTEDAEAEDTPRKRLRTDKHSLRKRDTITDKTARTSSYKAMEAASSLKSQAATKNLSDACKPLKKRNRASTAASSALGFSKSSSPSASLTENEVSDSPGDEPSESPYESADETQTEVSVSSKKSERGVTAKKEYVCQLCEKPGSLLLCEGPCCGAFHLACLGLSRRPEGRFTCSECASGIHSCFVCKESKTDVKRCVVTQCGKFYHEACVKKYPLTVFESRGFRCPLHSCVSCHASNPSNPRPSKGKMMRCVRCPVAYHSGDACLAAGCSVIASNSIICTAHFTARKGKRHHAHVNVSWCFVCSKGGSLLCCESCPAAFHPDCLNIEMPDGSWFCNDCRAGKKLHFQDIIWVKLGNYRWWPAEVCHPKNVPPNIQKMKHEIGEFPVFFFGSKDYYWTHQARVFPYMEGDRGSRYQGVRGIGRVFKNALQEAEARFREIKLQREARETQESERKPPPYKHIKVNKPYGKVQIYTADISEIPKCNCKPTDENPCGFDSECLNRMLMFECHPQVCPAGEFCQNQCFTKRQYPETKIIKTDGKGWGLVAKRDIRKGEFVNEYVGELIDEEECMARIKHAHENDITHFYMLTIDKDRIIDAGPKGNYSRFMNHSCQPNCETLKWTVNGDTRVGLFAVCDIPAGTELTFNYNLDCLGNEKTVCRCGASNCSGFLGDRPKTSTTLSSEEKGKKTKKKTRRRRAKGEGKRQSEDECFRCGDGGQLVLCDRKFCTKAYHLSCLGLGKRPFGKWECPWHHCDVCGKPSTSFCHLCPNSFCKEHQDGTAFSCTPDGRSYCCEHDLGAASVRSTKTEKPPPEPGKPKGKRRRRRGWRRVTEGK

[16] = target: Tyrosyl-DNA phosphodiesterase 2 (Homo sapiens, UniProt O95551); assay: human TDP2 enzyme inhibitors, dose response, biochemical, epi absorbance, IC50 (AID 743297)
[17] = target: Glutathione-S-transferase (Schistosoma japonicum, UniProt Q26513); assay: biotin-GST/anti-GST TR-FRET signal inhibitors, dose response, artefact control for Vif-APOBEC3G degradation inhibitor project, biochemical (AID 1117362); type: functional
[18] = Luminescence-based cell-based high throughput dose response assay to identify activators of the DAF-12 from the parasite S. stercoralis (ssDAF-12).; type: functional
[19] = target: T6, Oxysterols receptor LXR-beta (Homo sapiens, UniProt P55055); assay: LXR agonists, Gal4 luciferase reporter, dose response, counter-screen for ssDAF-12 agonist project, cell-based, luminescence, HEK293, S. stercoralis campaign (AID 720737); type: functional; conditions: read-out: IC50 (the source's name)
T6 sequence (P55055 whole entry): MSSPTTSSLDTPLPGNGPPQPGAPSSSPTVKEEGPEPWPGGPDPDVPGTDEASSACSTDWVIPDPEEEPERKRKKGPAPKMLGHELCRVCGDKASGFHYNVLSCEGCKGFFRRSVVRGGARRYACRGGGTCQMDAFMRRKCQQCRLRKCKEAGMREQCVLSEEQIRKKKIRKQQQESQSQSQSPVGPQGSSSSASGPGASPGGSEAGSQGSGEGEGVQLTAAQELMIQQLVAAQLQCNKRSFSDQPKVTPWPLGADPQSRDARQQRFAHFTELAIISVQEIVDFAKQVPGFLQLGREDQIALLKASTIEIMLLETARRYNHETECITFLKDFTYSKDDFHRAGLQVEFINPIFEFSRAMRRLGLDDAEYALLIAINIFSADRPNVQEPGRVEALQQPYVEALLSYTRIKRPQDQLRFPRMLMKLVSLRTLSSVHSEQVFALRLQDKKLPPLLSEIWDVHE

[20] = Concentration-dependent survival of SW480 colon cancer line, luminescence detection with CellTiter-Glo, half-maximal inhibitory concentration (AID 1117338); type: functional
[21] = RKO cell viability reduction, dose response, CellTiter-Glo luminescence (AID 1117322); type: functional
[22] = cytotoxicity toward HCT116 cells – cell-based, CellTiter-Glo luminescence, IC50, dose response (AID 1117332); type: functional; conditions: HCT-116
[23] = SNU-C1 cell viability reduction, dose response, CellTiter-Glo luminescence (AID 1117323); type: functional, cell-based
[24] = cytotoxicity toward Colo320 cells – cell-based, CellTiter-Glo luminescence, IC50, dose response (AID 1117334); type: functional; conditions: COLO 320
[25] = cytotoxicity toward HT-29 cells – cell-based, CellTiter-Glo luminescence, IC50, dose response (AID 1117330); type: functional
[26] = CellTiter-Glo luminescent dose response of DLD-1 viability loss (AID 1117352); type: functional
[27] = HCT116 cell viability decrease, GSK3B pretreatment – CellTiter-Glo, IC50, dose response (AID 1117339); type: functional; conditions: HCT-116
[28] = target: T6, Oxysterols receptor LXR-beta; type: functional, cell-based
[29] = Dose-response inhibition of insulin secretion in a rat insulinoma line at 5 mM glucose (AID 1117331); type: functional, cell-based; conditions: INS-1E

T1 sequence (Q9UBE0 whole entry): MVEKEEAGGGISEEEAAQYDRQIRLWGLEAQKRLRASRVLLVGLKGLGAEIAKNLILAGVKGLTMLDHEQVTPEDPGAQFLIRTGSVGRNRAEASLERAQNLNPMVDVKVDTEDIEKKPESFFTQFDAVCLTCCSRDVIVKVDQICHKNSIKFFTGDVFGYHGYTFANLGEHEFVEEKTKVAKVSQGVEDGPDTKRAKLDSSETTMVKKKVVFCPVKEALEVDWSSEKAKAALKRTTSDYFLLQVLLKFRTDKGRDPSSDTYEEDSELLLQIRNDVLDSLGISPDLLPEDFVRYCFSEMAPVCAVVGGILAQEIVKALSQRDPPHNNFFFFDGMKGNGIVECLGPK
T1 sequence (Q9UBT2 whole entry): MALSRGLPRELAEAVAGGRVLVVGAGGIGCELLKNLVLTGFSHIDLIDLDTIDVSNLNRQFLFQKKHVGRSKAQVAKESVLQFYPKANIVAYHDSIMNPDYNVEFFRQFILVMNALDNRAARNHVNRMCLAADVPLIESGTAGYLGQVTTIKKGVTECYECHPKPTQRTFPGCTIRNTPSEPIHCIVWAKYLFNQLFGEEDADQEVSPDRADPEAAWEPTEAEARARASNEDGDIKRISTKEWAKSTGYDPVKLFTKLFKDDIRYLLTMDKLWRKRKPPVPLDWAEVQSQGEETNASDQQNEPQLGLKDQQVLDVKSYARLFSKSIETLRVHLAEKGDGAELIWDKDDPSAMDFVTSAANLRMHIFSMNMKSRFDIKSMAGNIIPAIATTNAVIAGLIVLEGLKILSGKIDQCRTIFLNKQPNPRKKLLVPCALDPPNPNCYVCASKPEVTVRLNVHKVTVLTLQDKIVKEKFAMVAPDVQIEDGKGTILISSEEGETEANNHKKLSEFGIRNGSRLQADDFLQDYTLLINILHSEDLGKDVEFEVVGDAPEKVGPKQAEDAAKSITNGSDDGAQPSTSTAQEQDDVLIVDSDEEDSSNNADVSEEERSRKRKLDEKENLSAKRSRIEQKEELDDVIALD
Tyrosyl-DNA phosphodiesterase 2, sequence (O95551 whole entry): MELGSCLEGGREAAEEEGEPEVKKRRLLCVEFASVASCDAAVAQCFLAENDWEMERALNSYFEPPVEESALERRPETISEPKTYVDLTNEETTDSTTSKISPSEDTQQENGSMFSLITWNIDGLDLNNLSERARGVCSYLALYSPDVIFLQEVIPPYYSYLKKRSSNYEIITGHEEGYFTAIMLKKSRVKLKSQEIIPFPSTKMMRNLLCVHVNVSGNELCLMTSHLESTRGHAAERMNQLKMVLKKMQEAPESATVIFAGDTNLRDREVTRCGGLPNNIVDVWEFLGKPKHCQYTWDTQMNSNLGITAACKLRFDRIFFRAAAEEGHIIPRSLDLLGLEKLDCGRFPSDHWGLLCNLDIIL
Paired box protein Pax-8, sequence (Q06710 whole entry, the tested form may be a part): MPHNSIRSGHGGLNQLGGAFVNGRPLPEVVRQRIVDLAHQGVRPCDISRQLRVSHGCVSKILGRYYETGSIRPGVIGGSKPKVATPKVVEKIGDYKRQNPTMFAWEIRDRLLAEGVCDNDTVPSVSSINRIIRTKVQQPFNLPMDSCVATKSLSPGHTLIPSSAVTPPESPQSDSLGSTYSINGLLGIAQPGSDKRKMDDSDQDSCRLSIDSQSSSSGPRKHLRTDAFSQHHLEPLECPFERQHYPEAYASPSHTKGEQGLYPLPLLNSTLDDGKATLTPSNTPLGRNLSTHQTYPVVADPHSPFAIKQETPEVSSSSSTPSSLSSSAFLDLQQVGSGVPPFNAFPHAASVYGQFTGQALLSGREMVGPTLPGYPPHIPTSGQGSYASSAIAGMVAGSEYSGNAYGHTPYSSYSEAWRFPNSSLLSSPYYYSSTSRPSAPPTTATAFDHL
Glutathione-S-transferase, sequence (Q26513 whole entry): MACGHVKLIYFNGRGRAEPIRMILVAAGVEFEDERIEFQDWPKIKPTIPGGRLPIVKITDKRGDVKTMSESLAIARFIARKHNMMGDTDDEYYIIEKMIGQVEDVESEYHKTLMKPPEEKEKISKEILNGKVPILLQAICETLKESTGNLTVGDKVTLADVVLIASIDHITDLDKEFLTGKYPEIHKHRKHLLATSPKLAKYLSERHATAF

C[C@@H]1CN([C@H](C)CO)C(=O)c2cccc(NC(=O)c3ccncc3)c2O[C@H]1CN(C)Cc1ccc(C(F)(F)F)cc1
active: AC50 [1] 0.344 µM | AC50 [2] 0.0647 µM | AC50 [3] 0.0597 µM | IC50 [4] 0.048 µM

COc1ccc(S(=O)(=O)Nc2ccc3c(c2)CC(=O)N([C@@H](C)CO)C[C@@H](C)[C@H](CN(C)Cc2ccc(C(F)(F)F)cc2)O3)cc1
active: AC50 [5] 13.4 µM | AC50 (Paired box protein Pax-8) 6.77 µM | AC50 [6] 18.5 µM | AC50 [7] 24.4 µM | AC50 [8] 25.5 µM | AC50 [9] 29.5 µM

CN(C)c1cc(Cl)c2nonc2c1N
active: IC50 (SUMO-activating enzyme [10]) 2.7 µM | IC50 (SUMO-activating enzyme [11]) 16.2 µM | IC50 [12] 16.8 µM | IC50 [13] 8.12 µM | IC50 [14] 6.83 µM | AC50 (Caspase-6) 12.6 µM | AC50 [15] 4.43 µM | IC50 [16] 9.9 µM | IC50 [17] > 100 µM

O=C(CSc1nc2nncc-2c(O)[nH]1)Nc1nccs1
inactive: IC50 [18] > 67.6 µM | EC50 [19] > 67.6 µM

NC1=NCC2c3ccccc3Cc3ccccc3N12 (centres undefined) [EPINASTINE HYDROCHLORIDE]
inactive: IC50 [20] > 20 µM | IC50 [21] > 20 µM | IC50 [22] > 20 µM | IC50 [23] > 20 µM | IC50 [24] > 20 µM | IC50 [25] > 20 µM | IC50 [26] > 20 µM | IC50 [27] > 20 µM

CC(C)(C)NC(=O)C(c1cc2ccccc2o1)n1c(-c2ccc(-c3ccccc3)cc2)nc2ccccc21 (centres undefined)
inactive: IC50 [18] > 67.6 µM | EC50 [19] > 67.6 µM | EC50 [28] > 67.6 µM | EC50 (cells) > 67.6 µM

CN(C)CCCOc1nn(Cc2ccccc2)c2ccccc12 [BENZYDAMINE HYDROCHLORIDE]
inactive: IC50 [29] 21.4 µM
